One series addresses T1, Alpha Polymerase (Homo sapiens, UniProt P09884).
T1 sequence (P09884 1-1462): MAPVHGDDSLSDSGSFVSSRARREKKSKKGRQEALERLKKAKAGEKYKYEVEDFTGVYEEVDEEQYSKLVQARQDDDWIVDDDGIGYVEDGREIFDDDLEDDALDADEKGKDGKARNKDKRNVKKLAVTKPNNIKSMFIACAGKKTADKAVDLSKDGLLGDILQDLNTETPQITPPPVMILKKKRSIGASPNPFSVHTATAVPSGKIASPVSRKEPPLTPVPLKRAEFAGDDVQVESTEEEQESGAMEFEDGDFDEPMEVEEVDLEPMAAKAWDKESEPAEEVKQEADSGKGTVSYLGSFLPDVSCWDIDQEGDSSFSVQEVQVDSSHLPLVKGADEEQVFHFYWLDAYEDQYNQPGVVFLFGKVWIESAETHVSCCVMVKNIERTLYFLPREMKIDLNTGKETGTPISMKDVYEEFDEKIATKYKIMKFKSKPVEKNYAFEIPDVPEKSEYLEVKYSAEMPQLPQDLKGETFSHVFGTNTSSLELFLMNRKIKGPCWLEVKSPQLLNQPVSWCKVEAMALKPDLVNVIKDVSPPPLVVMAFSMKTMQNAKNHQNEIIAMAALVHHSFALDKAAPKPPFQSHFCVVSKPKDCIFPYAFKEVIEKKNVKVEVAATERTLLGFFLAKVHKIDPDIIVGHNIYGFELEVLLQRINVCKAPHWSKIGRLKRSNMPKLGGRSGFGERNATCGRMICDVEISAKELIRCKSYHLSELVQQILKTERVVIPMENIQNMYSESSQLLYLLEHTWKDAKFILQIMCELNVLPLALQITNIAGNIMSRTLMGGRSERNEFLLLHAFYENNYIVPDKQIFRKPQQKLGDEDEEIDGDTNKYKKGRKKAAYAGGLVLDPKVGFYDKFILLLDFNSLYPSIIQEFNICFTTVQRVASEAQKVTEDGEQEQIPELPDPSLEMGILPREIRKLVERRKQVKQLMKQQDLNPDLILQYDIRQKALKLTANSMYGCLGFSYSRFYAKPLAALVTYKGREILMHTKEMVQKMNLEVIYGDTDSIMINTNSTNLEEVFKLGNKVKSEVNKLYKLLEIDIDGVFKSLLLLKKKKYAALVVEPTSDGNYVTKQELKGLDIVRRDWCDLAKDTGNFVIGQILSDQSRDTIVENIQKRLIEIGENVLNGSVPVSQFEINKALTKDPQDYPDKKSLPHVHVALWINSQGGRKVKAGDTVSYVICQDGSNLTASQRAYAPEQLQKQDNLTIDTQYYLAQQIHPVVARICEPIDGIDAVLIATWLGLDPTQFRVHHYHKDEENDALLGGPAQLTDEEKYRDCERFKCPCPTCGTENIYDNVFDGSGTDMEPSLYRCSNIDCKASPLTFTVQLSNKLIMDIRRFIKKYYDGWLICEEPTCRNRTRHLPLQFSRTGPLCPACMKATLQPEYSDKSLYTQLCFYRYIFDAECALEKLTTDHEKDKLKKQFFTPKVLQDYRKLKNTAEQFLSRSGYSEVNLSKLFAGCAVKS
Description: Alpha polymerase inhibition (selectivity). The class given is biochemical.

The next series addresses T2, HCMV polymerase (Human cytomegalovirus, UniProt P08546).
T2 construct: made in house; host or cells: SF-9 insect cells infected with recombinant baculovirus
Briefly: HCMV polymerase assay (scintillation proximity assay), original and modified version. It is filed as biochemical. Conditions: SPA; several values per example = repeat determinations, assay version not given; read-out: CMV Polymerase IC50. The method, then: The HCMV polymerase assay is performed using a scintillation proximity assay (SPA) as described in several references, such as N.D. Cook, et al., Pharmaceutical Manufacturing International, pages 49-53 (1992); K. Takeuchi, Laboratory Practice, September issue (1992); U.S. Pat. No. 4,568,649 (1986); which are incorporated by reference herein. Reactions are performed in 96-well plates. The assay is conducted in 100 μl volume with 5.4 mM HEPES (pH 7.5), 11.7 MM KCl, 4.5 mM MgCl2, 0.36 mg/ml BSA, and 90 nM ^3H-dTTP. Assays are run with and without CHAPS, (3-[(3-Cholamidopropyl)-dimethylammoniol-1-propane-sulfonate) at a final concentration of 2 mM. HCMV polymerase is diluted in enzyme dilution buffer containing 50% glycerol, 250 mM NaCl, 10 mM HEPES (pH 7.5), 100 μg/ml BSA, and 0.01% sodium azide. The HCMV polymerase, which is expressed in recombinant baculovirus-infected SF-9 cells and purified according to literature procedures, is added at 10% (or 10 μl) of the final reaction volume, i.e., 100 μl. Compounds are diluted in 50% DMSO and 10 μl are added to each well. Control wells contain an equivalent concentration of DMSO. Unless noted otherwise, reactions are initiated via the addition of 6 nM biotinylated poly(dA)-oligo(dT) template/primer to reaction mixtures containing the enzyme, substrate, and compounds of interest. Plates are incubated in a 25° C. or 37° C. H2O bath and terminated via the addition of 40 μl/reaction of 0.5 M EDTA (pH 8) per well. Reactions are terminated within the time-frame during which substrate incorporation is linear and varied depending upon the enzyme and conditions used, i.e., 30 min. for HCMV polymerase. Ten (10) μl of streptavidin-SPA beads (20 mg/ml in PBS/10% glycerol) are added following termination of the reaction. Plates are incubated 10 min. at 37° C., then equilibrated to room temperature, and counted on a Packard Topcount. Linear regressions are performed and IC50's are calculated using computer software.
A modified version of the above HCMV polymerase assay is performed as described above, but with the following changes: Compounds are diluted in 100% DMSO until final dilution into assay buffer. In the previous assay, compounds are diluted in 50% DMSO. 4.5 mM dithiotherotol (DTT) is added to the polymerase buffer.
In general terms: Scintillation proximity formats need no separation of bound from free tracer.

Molecules are shown by their SMILES. Where “and” joins values, the source holds several entries; their conditions need not be identical. Equal entries are not always repeated. Some results are limits rather than exact numbers.

T2 sequence (P08546 whole entry): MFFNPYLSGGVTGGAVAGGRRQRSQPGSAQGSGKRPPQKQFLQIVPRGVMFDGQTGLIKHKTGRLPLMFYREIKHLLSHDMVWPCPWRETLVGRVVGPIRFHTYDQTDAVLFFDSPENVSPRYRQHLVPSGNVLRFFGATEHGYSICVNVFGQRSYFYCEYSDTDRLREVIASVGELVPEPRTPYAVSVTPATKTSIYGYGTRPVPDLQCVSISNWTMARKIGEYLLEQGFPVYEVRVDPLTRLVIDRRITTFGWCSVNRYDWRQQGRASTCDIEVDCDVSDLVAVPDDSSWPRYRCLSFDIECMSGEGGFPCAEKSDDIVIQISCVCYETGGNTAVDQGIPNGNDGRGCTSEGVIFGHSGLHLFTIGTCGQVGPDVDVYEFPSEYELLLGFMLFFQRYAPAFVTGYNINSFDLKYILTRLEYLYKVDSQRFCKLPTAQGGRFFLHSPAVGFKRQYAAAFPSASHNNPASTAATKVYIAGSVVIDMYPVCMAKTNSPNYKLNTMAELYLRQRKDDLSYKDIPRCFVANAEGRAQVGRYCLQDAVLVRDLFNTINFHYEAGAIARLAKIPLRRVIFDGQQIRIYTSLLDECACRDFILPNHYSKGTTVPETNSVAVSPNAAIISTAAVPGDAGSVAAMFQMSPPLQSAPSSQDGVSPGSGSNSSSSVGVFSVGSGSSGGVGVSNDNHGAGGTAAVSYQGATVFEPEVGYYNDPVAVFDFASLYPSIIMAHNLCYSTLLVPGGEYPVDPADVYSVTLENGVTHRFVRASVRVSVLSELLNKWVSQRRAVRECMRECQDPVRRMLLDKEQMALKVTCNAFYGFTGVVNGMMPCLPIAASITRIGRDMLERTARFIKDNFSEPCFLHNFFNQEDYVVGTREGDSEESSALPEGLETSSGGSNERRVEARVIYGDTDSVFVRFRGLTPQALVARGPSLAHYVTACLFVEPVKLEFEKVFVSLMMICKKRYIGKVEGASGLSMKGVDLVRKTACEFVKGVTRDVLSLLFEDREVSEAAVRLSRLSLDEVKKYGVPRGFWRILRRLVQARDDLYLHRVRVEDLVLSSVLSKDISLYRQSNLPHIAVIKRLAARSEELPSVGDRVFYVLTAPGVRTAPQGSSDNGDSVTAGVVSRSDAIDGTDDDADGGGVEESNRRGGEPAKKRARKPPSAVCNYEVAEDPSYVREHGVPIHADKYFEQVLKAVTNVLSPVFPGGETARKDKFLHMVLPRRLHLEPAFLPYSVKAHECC

As usually defined, the melting point is the temperature of the solid-liquid transition. Usually IC50 stands for the concentration needed to halve the response being measured. `CN(Cc1cc2c3c(c1)c(=O)c(C(=O)NCc1ccc(Cl)cc1)cn3CC(=O)N2C)CC(O)c1csc2ccccc12` (racemic) [Example 15, rac 9-{([2-(1-benzothien-3-yl)-2-hydroxyethyl](methyl)amino)methyl}-N-(4-chlorobenzyl)-1-methyl-2,7-dioxo-2,3-dihydro-1H,7H-pyrido[1,2,3-de]quinoxaline-6-carboxamide] came in with a melting point of 147 to 149 °C. Moreover, the half-maximal inhibitory concentration (IC50) at Alpha Polymerase is more than 20 µM. In addition, the half-inhibitory concentration (IC50) on HCMV polymerase is 0.11 µM and 0.086 µM.

In the case of `Cc1ccc(C(O)CN(C)Cc2cc3c4c(c2)c(=O)c(C(=O)NCc2ccc(Cl)cc2)cn4CC(=O)N3C)o1` (racemic) [Example 6, rac N-(4-chlorobenzyl)-9-{([2-hydroxy-2-(5-methyl-2-furyl)ethyl](methyl)amino)methyl}-1-methyl-2,7-dioxo-2,3-dihydro-1H,7H-pyrido[1,2,3-de]quinoxaline-6-carboxamide], the melting point was 159 to 161 °C. For the same compound, the IC50 against Alpha Polymerase was more than 20 µM. Also, the IC50 at HCMV polymerase is 0.12 µM and 0.089 µM.

With `CN(Cc1cc2c3c(c1)c(=O)c(C(=O)NCc1ccc(Cl)cc1)cn3CC(=O)N2C)CC(O)c1ccc(O)cc1` (racemic) [Example 2, rac N-(4-chlorobenzyl)-9-{([2-hydroxy-2-(4-hydroxyphenyl)ethyl](methyl)amino)methyl}-1-methyl-2,7-dioxo-2,3-dihydro-1H,7H-pyrido[1,2,3-de]quinoxaline-6-carboxamide], the melting point was 145 to 148 °C. Further, the concentration for half-maximal inhibition (IC50) against Alpha Polymerase was more than 5 µM. Moreover, the half-inhibitory concentration (IC50) at HCMV polymerase is 0.07 µM and 0.093 µM.

Turning to `CN(Cc1cc2c3c(c1)c(=O)c(C(=O)NCc1ccc(Cl)cc1)cn3CC(=O)N2C)C[C@@H](O)c1ccco1` [Example 11, N-(4-chlorobenzyl)-9-{[[(2R)-2-(2-furyl)-2-hydroxyethyl](methyl)amino]methyl}-1-methyl-2,7-dioxo-2,3-dihydro-1H,7H-pyrido[1,2,3-de]quinoxaline-6-carboxamide], the melting point was in the range of 119 to 120 °C. Moreover, at Alpha Polymerase, the half-inhibitory concentration (IC50) was more than 20 µM. Besides, on HCMV polymerase, the IC50 is 0.11 µM and 0.046 µM.

The compound `CN(Cc1cc2c3c(c1)c(=O)c(C(=O)NCc1ccc(Cl)cc1)cn3CC(=O)N2C)C[C@@H](O)c1cccnc1` [Example 13, N-(4-chlorobenzyl)-9-{[[(2S)-2-hydroxy-2-pyridin-3-ylethyl](methyl)amino]methyl}-1-methyl-2,7-dioxo-2,3-dihydro-1H,7H-pyrido[1,2,3-de]quinoxaline-6-carboxamide] had a melting point of 131 to 135 °C. The same compound had an IC50 at Alpha Polymerase of more than 20 µM. Also, the IC50 on HCMV polymerase is 0.15 µM and 0.076 µM.

`CN(Cc1cc2c3c(c1)c(=O)c(C(=O)NCc1ccc(F)cc1)cn3CC(=O)N2C)CC(O)c1cc2ccccc2o1` (racemic) [Example 33, rac 9-{[[2-(1-benzofuran-2-yl)-2-hydroxyethyl](methyl)amino]methyl}-N-(4-fluorobenzyl)-1-methyl-2,7-dioxo-2,3-dihydro-1H,7H-pyrido[1,2,3-de]quinoxaline-6-carboxamide] returned a melting point of 161 to 163 °C. This compound came in with a 50% inhibitory concentration (IC50) against Alpha Polymerase of 4.39 µM. In addition, the IC50 at HCMV polymerase turned out to be 0.032 µM.

Values taken from US20030207877A1, “Pyridoquinoxaline antivirals” (priority 2001, published 2003).
